Data taken from US4873236A, “Condensed diazepinones, processes for preparing them and pharmaceutical compositions containing these compounds” (Dr. Karl Thomae GmbH, priority 1986, dated 1989).
Like-named read-outs stand apart in the source and are kept apart here. One block for each compound: values may come before it.

What was measured:
[1] = target: T1, M1 (rise in blood pressure by McN-A-343) (Rattus norvegicus, UniProt P08482); test: M1/M2 selectivity in the rat: inhibition of McN-A-343 blood pressure increase (M1); format: in vivo, male THOM rats; conditions: iv, 5 min
T1 construct: from tissue
T1 sequence (P08482 1-460): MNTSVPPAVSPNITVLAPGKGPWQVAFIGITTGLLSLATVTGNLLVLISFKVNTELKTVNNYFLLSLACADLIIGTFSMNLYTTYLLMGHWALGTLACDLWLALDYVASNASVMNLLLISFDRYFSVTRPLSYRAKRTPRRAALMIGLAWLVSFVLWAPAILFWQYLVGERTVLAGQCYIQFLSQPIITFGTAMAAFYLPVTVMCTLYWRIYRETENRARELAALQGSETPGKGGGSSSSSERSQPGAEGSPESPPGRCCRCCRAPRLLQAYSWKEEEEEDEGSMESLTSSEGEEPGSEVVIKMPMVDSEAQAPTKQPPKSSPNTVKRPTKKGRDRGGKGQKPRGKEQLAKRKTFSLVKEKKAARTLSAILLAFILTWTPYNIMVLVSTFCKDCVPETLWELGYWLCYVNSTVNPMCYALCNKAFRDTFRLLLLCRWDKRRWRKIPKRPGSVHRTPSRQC

[2] = target: T2, M2 (vagal bradycardia) (Rattus norvegicus, UniProt P10980); test: M1/M2 selectivity in the rat: inhibition of vagally stimulated bradycardia (M2); format: in vivo, male THOM rats; conditions: iv, 5 min, read-out: M2 activity (rat) ED50
T2 construct: The bradycardia produced by vagus stimulation; from tissue; host or cells: whole animal (male THOM rats), heart
T2 sequence (P10980 1-466): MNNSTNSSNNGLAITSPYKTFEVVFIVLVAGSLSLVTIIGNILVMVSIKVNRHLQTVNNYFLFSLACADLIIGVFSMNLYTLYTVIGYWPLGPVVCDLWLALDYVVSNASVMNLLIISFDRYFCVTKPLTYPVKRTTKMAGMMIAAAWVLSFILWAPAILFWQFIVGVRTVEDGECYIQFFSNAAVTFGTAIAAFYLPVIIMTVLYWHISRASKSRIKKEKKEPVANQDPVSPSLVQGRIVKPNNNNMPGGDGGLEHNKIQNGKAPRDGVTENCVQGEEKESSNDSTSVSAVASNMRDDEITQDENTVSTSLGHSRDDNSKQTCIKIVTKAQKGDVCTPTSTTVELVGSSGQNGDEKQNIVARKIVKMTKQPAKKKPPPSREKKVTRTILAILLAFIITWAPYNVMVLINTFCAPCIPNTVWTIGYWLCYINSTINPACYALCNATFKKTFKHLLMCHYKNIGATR
Experimental: The method used was described by Hammer and Giachetti (Life Sciences 31, 2991-2998 (1982)). 5 minutes after intravenous injection of increasing doses of the substance, either the right vagus was electrically stimulated (frequency: 25 Hz; pulse width: 2 ms; duration of stimulus: 30 s; number of volts: supramaximal) or 0.3 mg/kg of McN-A-343 was injected intravenously into male THOM rats. The bradycardia produced by vagus stimulation and the increase in blood pressure produced by McN-A-343 were measured.

[3] = target: T3, muscarinic receptors, submandibular gland (Rattus norvegicus, UniProt P08483); test: Receptor bonding test in vitro, submandibular gland (displacement of 3H-N-methylscopolamine); format: binding, Sprague-Dawley rats; conditions: 0.3 nmolar 3H-NMS, 30° C., 45 min
T3 construct: After removal of the heart and submandibular gland; from tissue; host or cells: submandibular gland of male Sprague-Dawley rats, homogenate
T3 sequence (P08483 whole entry): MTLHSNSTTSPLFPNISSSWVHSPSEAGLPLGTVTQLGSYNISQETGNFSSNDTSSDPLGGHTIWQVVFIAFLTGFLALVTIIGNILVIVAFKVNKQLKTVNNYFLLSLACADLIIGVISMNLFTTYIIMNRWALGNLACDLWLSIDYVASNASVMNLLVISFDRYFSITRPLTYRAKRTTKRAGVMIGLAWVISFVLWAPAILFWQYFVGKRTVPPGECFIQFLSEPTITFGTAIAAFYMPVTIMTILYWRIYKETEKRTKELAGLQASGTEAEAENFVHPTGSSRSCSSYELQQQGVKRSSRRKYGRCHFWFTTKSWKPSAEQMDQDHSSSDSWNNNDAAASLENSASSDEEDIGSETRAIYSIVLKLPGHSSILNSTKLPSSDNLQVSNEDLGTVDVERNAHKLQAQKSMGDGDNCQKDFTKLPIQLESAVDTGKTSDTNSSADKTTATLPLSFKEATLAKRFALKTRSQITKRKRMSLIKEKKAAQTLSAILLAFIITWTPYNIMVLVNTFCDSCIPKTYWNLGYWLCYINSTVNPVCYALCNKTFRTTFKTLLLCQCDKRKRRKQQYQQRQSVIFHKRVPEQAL

[4] = target: T4, muscarinic receptors, lachrymal glands (Rattus norvegicus, UniProt P08483); test: Receptor bonding test in vivo, lachrymal glands (3H-NMS); set-up: species or system female rats; conditions: iv, 0.5 h, read-out: ID50 Lachrymal glands
T4 construct: from tissue; host or cells: lachrymal glands of female rats, labelled in vivo
T4 sequence (P08483 whole entry): as above
Experimental: (§1) For these experiments, female rats with a body weight of about 200 g were used. Before the start of the test the animals were anaesthetised with a dosage of 1.25 g/kg of urethane. The animals were each given the prescribed dosage of test substance by intravenous injection. After 15 minutes, 113 ng/kg of ^3 H-N-methylscopolamine (^3 H-NMS) were administered by the same route. After another 15 minutes the animals were killed and the heart, bronchi and lachrymal glands were removed. These organs were dissolved in Soluene R and the radioactivity was determined. The measurements were assumed to be total bonding. […] ID50 values were determined for the individual organs using these tests.

[5] = target: T5, muscarinic receptors of the atrium (Cavia porcellus, UniProt H0VRN8); test: Dissociation constants (KB) on spontaneously beating right atrium, methacholine antagonism; set-up: species or system guinea pig
T5 construct: In the isolated, spontaneously beating right atrium; from tissue; host or cells: isolated right atrium of guinea pig
T5 sequence (H0VRN8 1-466): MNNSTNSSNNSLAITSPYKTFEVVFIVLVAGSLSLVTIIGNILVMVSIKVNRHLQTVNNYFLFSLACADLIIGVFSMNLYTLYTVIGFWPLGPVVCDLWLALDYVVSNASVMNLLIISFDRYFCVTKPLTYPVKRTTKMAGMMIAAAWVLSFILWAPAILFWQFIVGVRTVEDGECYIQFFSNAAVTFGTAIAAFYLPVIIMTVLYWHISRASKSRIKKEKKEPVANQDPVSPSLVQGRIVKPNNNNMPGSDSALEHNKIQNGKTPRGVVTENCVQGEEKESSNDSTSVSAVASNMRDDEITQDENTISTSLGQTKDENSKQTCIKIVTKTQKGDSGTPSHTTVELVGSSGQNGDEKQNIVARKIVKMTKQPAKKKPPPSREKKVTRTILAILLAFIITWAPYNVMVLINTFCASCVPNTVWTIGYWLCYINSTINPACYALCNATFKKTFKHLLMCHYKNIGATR
Experimental: Dissociation constants (KB values) were determined in vitro on the guinea pig ileum and spontaneously beating atrium. The ileum was removed and incubated in Krebs-Henseleit solution in an organ bath. Contractions were produced by means of increasing concentrations of methacholine (M) so that a full concentration-activity curve could be plotted. Then M was washed out, the test substance was added and kept in contact for 30 minutes and again a concentration-activity curve was plotted with M. The dissociation constant was calculated according to Arunlakshana and Schild (Brit. J. Pharmacol. 14, 48, 1959) from the dosage ratio (DR), i.e. the extent of displacement of the concentration-activity curve.
In the isolated, spontaneously beating right atrium M reduced the heart rate as a function of the concentration. This effect was stopped by the addition of an antimuscarinic. Dissociation constants for the muscarinic receptors of the atrium were obtained in the same way as described above. A comparison of the dissociation constants measured in the two different tissues made it possible to identify cardioselective substances.

[6] = target: T6, muscarinic receptors, heart (Rattus norvegicus, UniProt P10980); test: Receptor bonding test in vitro, heart (displacement of 3H-N-methylscopolamine); format: binding, Sprague-Dawley rats; conditions: 0.3 nmolar 3H-NMS, 30° C., 45 min, heart
T6 construct: After removal of the heart and submandibular gland; from tissue; host or cells: whole heart of male Sprague-Dawley rats, homogenate
T6 sequence (P10980 1-466): T2 sequence (P10980 1-466)

[7] = test system: muscarinic receptors, bronchi; test: Receptor bonding test in vivo, bronchi (3H-NMS); set-up: species or system female rats; conditions: in vivo binding, i.v., rat, 113 ng/kg 3H-NMS; 30 min
Experimental: as §1

[8] = target: T7, muscarinic receptors, heart ventricle (Rattus norvegicus, UniProt P10980); test: Receptor bonding test in vivo, heart ventricle (3H-NMS); set-up: species or system female rats; conditions: iv, 0.5 h, read-out: ID50 Heart Ventricle
T7 construct: the heart, bronchi and lachrymal glands were removed; from tissue; host or cells: heart (atrium, ventricle) of female rats, labelled in vivo
T7 sequence (P10980 1-466): T2 sequence (P10980 1-466)
Experimental: as §1

[9] = target: T8, muscarinic receptors, heart atrium (Rattus norvegicus, UniProt P10980); test: Receptor bonding test in vivo, heart atrium (3H-NMS); set-up: species or system female rats; conditions: rat, iv, 0.5 h, read-out: ID50 Heart Atrium
T8 construct: from tissue; host or cells: heart (atrium, ventricle) of female rats, labelled in vivo
T8 sequence (P10980 1-466): T2 sequence (P10980 1-466)
Experimental: as §1

[10] = test system: salivation; test: Salivation-inhibiting effect on the rat (pilocarpine); format: in vivo, male THOM rats; conditions: Rattus norvegicus, iv, read-out: Salivation inhibition (rat) ED50
Experimental: The secretion of saliva was triggered by subcutaneous administration of 2 mg/kg of pilocarpine. The saliva was soaked up with blotting paper and the area occupied by the saliva was determined by planimetry every 5 minutes. The dosage of substance which reduced the volume of saliva by 50% was determined graphically.

[11] = Solubility in water; conditions: in words

Compound: CCN(CC)CC1CCCCN1CC(=O)N1c2ccccc2C(=O)Nc2cccnc21 (stereo not drawn) [Substance X, 11-[[2-[(diethylamino)methyl]-piperidin-1-yl]acetyl]-5,11-dihydro-6H-pyrido[2,3-b][1,4]benzodiazepin-6-one, reference compound]
ED50 ([1]; i.v., 50% reduction in blood pressure rise by 0.3 mg/kg McN-A-343, read-out: M1 activity (rat) ED50): 0.988 mg/kg
ED50 ([2]; i.v., 50% reduction in vagal bradycardia): 0.16 mg/kg
IC50 [3]: 5000 nM
ED50 [4]: > 30 mg/kg
Kb ([5]; guinea pig spontaneously beating atrium, methacholine, 30 min contact, read-out: KB Heart (dissociation constant)): 105 nM
IC50 [6]: 150 nM

Compound: CN1C2CCC1CC(OC(=O)C(CO)c1ccccc1)C2 (stereo not drawn) [Substance Z, atropine, reference compound]
ID50 Bronchi [7]: 0.1 mg/kg
ED50 ([1]; read-out: M1 activity (rat) ED50): 0.016 mg/kg
ED50 [2]: 0.004 mg/kg
ED50 [8]: 0.03 mg/kg
ED50 [4]: 0.2 mg/kg
Kb [5]: 1.41 nM
ED50 [9]: 0.08 mg/kg

Compound: CN1CCN(CC(=O)N2c3ccccc3C(=O)Nc3cccnc32)CC1 [Substance Y, 5,11-dihydro-11-[(4-methyl-piperazin-1-yl)acetyl]-6H-pyrido[2,3-b][1,4]benzodiazepin-6-one, reference compound]
ED50 [10]: 0.084 mg/kg
Kb [5]: 240 nM

Compound: Cl.O=C1Nc2cccnc2N(C(=O)NCCN2CCCCC2CN2CCCCC2)c2ccccc21 (stereo not drawn) [Example 39, 5,11-Dihydro-11-[[[2-[2-[(piperidin-1-yl)methyl]-piperidin-1-yl]ethyl]amino]carbonyl]-6H-pyrido[2,3-b][1,4]benzodiazepin-6-one hydrochloride]
solubility in water [11]: soluble in water

solubility in water [11]: Soluble in water
Compound: CCN(CC)CC1CCCCN1CCCNC(=O)N1c2ccccc2NC(=O)c2ccccc21 (stereo not drawn) [Example 8, 5-[[[3-[2-[(Diethylamino)methyl]-piperidin-1-yl]propyl]amino]carbonyl]-5,10-dihydro-11H-dibenzo[b,e][1,4]diazepin-11-one]

solubility in water [11]: soluble in water
Compound: CN(C)CC1CCCCN1CCCCNC(=O)N1c2ccccc2C(=O)Nc2cccnc21 (racemic) [Example 20, D,L-5,11-Dihydro-11-[[[4-[2-[(dimethylamino)methyl]-piperidin-1-yl]butyl]amino]carbonyl]-6H-pyrido[2,3-b][1,4]benzodiazepin-6-one]
